This note sets out measurements from patent US20240381872A1, “SUBSTITUTED 2,3-DIHYDRO[1,3]THIAZOLO[4,5-B]PYRIDINES, SALTS THEREOF AND THEIR USE AS HERBICIDALLY ACTIVE SUBSTANCES” (BAYER AKTIENGESELLSCHAFT, priority 2021, published 2024).

Molecules are shown by their SMILES.

Common to all, as to format: in vivo
In assay [1] the test system is Echinochloa crus-galli (ECHCG). The assay is described as follows: Herbicidal pre-emergence action, section A (Table A3). Conditions: visual grading after ca. 3 weeks vs untreated controls. The method, boiled down: (§1)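 Pre-emergence soil-surface application: WP or EC formulations in water plus 0.5% additive, sprayed at 600 l/ha onto soil covering seeds sown in sandy loam. Visual percent damage rated at about 3 weeks against untreated pots, 100% meaning plants died off and 0% meaning like controls.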

Assay [2] has as its system Kochia scoparia (KCHSC). The assay is described as follows: Herbicidal pre-emergence action, section A (Table A4). The conditions noted are these: visual grading after ca. 3 weeks vs untreated controls. The method, boiled down: as §1
For assay [3], the system named is Lolium rigidum (LOLRI). The assay is described as follows: Herbicidal pre-emergence action, section A (Table A5). Conditions: visual grading after ca. 3 weeks vs untreated controls. The method, boiled down:
as §1

Assay [4] deals with Matricaria inodora (MATIN). The assay is described as follows: Herbicidal pre-emergence action, section A (Table A6). The conditions noted are these: application rate 1280 g/ha, visual grading after ca. 3 weeks vs untreated controls; for pest or weed control at 1280 g/ha: Tripleurospermum inodorum, pre-emergence, 504 h, read-out: pre-emergence activity against MATIN in %. Put shortly: as §1

Assay [5] concerns Poa annua (POAAN). The assay is described as follows: Herbicidal pre-emergence action, section A (Table A7). Conditions: visual grading after ca. 3 weeks vs untreated controls. Put shortly:
as §1

Assay [6] has as its system Setaria viridis (SETVI). The assay is described as follows: Herbicidal pre-emergence action, section A (Table A8). The method, boiled down:
as §1

Assay [7] concerns Stellaria media (STEME). The assay is described as follows: Herbicidal pre-emergence action, section A (Table A9). The conditions noted are these: application rate 320 g/ha; for pest or weed control at 320 g/ha: Stellaria media, 504 h, read-out: pre-emergence activity against STEME in %. Put shortly: as §1
The test system of assay [8] is Veronica persica (VERPE). The assay is described as follows: Herbicidal pre-emergence action, section A (Table A10). The conditions noted are these: for pest or weed control at 320 g/ha: Veronica persica, 504 h, application rate 320 g/ha, read-out: pre-emergence activity against VERPE in %. The method, boiled down:
as §1

The subject of assay [9] is Amaranthus retroflexus (AMARE). The assay is described as follows: Herbicidal pre-emergence action, section A (Table A11). Put shortly:
as §1

For assay [10], the system named is Digitaria sanguinalis (DIGSA). The assay is described as follows: Herbicidal pre-emergence action, section A (Table A12). The conditions noted are these: for pest or weed control at 1280 g/ha: Digitaria sanguinalis, 504 h, application rate 1280 g/ha, read-out: pre-emergence activity against DIGSA in %. Put shortly: as §1
Assay [11] concerns Abutilon theophrasti (ABUTH). The assay is described as follows: Herbicidal post-emergence action, section B (Table B1). The conditions noted are these: Abutilon theophrasti, 504 h, application rate 1280 g/ha, rated visually after about 3 weeks, read-out: post-emergence activity against ABUTH in %. As to the method: (§2) Seeds of mono- and dicotyledonous weed plants were placed in plastic pots in sandy loam soil (doubly sown with in each case one species of mono- or dicotyledonous weed plants per pot), covered with soil and cultivated in a greenhouse under controlled growth conditions. 2 to 3 weeks after sowing, the test plants were treated at the one-leaf stage. The compounds of the invention, formulated in the form of wettable powders (WP) or as emulsion concentrates (EC), were applied onto the green parts of the plants as aqueous suspension or emulsion with addition of 0.5% additive at a water application rate of 600 liters per hectare (converted). After the test plants had been kept in the greenhouse under optimum growth conditions for about 3 weeks, the activity of the preparations was rated visually in comparison to untreated controls. For example, 100% activity=the plants have died, 0% activity=like control plants.

In assay [12] the test system is Echinochloa crus-galli (ECHCG). The assay is described as follows: Herbicidal post-emergence action, section B (Table B3). The conditions noted are these: rated visually after about 3 weeks. The protocol: as §2
The subject of assay [13] is Lolium rigidum (LOLRI). The assay is described as follows: Herbicidal post-emergence action, section B (Table B5). Conditions: application rate 1280 g/ha, visual rating about 3 weeks after treatment vs untreated controls; for pest or weed control at 1280 g/ha: Lolium rigidum, post-emergence, 504 h, read-out: post-emergence activity against LOLRI in %. As to the method: as §2

In assay [14] the test system is Poa annua (POAAN). The assay is described as follows: Herbicidal post-emergence action, section B (Table B7). Conditions: Poa annua, post-emergence, 504 h, visual rating about 3 weeks after treatment vs untreated controls, read-out: post-emergence activity against POAAN in %. The method, boiled down:
(§3)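 In this greenhouse assay, compounds in WP or EC form were applied post-emergence with 0.5% additive at a water rate of 600 liters per hectare. Treatment took place at the one-leaf stage, and injury was rated visually about 3 weeks later against untreated plants.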

In assay [15] the test system is Setaria viridis (SETVI). The assay is described as follows: Herbicidal post-emergence action, section B (Table B8). Conditions: Setaria viridis, post-emergence, 504 h; application rate 320 g/ha; visual rating about 3 weeks after treatment vs untreated controls; read-out: post-emergence activity against SETVI in %. As to the method: as §2
Assay [16] concerns Stellaria media (STEME). The assay is described as follows: Herbicidal post-emergence action, section B (Table B9). Conditions: visual rating about 3 weeks after treatment vs untreated controls; for pest or weed control at 1280 g/ha: Stellaria media, post-emergence, 504 h, application rate 1280 g/ha, read-out: post-emergence activity against STEME in %. Put shortly: as §3
The subject of assay [17] is Veronica persica (VERPE). The assay is described as follows: Herbicidal post-emergence action, section B (Table B10). Conditions: Veronica persica, post-emergence, 504 h, visual rating about 3 weeks after treatment vs untreated controls, read-out: post-emergence activity against VERPE in %. Put shortly:
as §3

Assay [18] concerns Amaranthus retroflexus (AMARE). The assay is described as follows: Herbicidal post-emergence action, section B (Table B11). The conditions noted are these: visual rating about 3 weeks after treatment vs untreated controls. Put shortly:
as §3

Assay [19] relates to Digitaria sanguinalis (DIGSA). The assay is described as follows: Herbicidal post-emergence action, section B (Table B12). Conditions: Digitaria sanguinalis, post-emergence, 504 h; application rate 1280 g/ha; visual rating about 3 weeks after treatment vs untreated controls; read-out: post-emergence activity against DIGSA in %. The protocol: as §2
In assay [20] the test system is Kochia scoparia (KCHSC). The assay is described as follows: Herbicidal post-emergence action, section B (Table B4). The conditions noted are these: Bassia scoparia, post-emergence, 504 h; application rate 1280 g/ha; visual rating about 3 weeks after treatment vs untreated controls; read-out: post-emergence activity against KCHSC in %. Put shortly:
as §3

Assay [21] concerns Alopecurus myosuroides (ALOMY). The assay is described as follows: Herbicidal pre-emergence action, section A (Table A2). The conditions noted are these: application rate 1280 g/ha; visual grading after ca. 3 weeks vs untreated controls. An excerpt:
Seeds of mono- and dicotyledonous weed plants were sown in plastic pots (double sowings with one species of mono- and one species of dicotyledonous weed plants per pot), in sandy loam, and covered with soil. The compounds according to the invention, formulated in the form of wettable powders (WP) or as emulsifiable concentrates (EC), were applied to the surface of the covering soil as aqueous suspension or emulsion, with the addition of 0.5% of an additive, at an application rate of 600 l of water per hectare (converted). Following treatment, the pots were placed in a greenhouse and kept under optimum growth conditions for the test plants. The visual grading of the damage to the test plants was carried out after ca. 3 weeks in comparison to untreated controls (herbicidal effect in percent (%): 100% effect=plants have died off, 0% effect=as control plants).

Regarding `Cc1cc2c(nc1-c1ccccc1Cl)N(S(C)(=O)=O)CS2` [Example I-142, 5-(2-chlorophenyl)-6-methyl-3-(methylsulfonyl)-2,3-dihydro[1,3]thiazolo[4,5-b]pyridine], the pest or weed control at 320 g/ha in [1] (Echinochloa crus-galli, pre-emergence, 504 h, application rate 320 g/ha, read-out: pre-emergence activity against ECHCG in %) worked out at 100%; with Kochia scoparia (KCHSC) [2] (Bassia scoparia, pre-emergence, 504 h, application rate 320 g/ha, read-out: pre-emergence activity against KCHSC in %), 90%; in the assay on Lolium rigidum (LOLRI) [3] (Lolium rigidum, pre-emergence, 504 h, application rate 320 g/ha, read-out: pre-emergence activity against LOLRI in %) it was 100%; in the assay with Poa annua (POAAN) [5] (Poa annua, pre-emergence, 504 h, application rate 320 g/ha, read-out: pre-emergence activity against POAAN in %), 100%; in the assay on Setaria viridis (SETVI) [6] (Setaria viridis, 504 h, application rate 320 g/ha, read-out: pre-emergence activity against SETVI in %), 100%; in the assay with Stellaria media (STEME) [7], 90%. In addition, the pest or weed control at 320 g/ha in the assay on Veronica persica (VERPE) [8] was 90%; in assay [9] (Amaranthus retroflexus, 504 h, application rate 320 g/ha, read-out: pre-emergence activity against AMARE in %), 90%; in [12] (Echinochloa crus-galli, 504 h, application rate 320 g/ha, read-out: post-emergence activity against ECHCG in %), 90%; with Setaria viridis (SETVI) [15], 90%; in the assay on Veronica persica (VERPE) [17] (application rate 320 g/ha), 90%; in [18] (Amaranthus retroflexus, post-emergence, 504 h, application rate 320 g/ha, read-out: post-emergence activity against AMARE in %), 90%. Further, the pest or weed control at 1280 g/ha in assay [4] was 90%; in [10], 100%; in assay [11], 90%; in the assay with Lolium rigidum (LOLRI) [13] it was 90%; in the assay on Poa annua (POAAN) [14] (application rate 1280 g/ha) it was 90%; in the assay on Stellaria media (STEME) [16], 90%. For the same compound, in assay [19], the pest or weed control at 1280 g/ha was found to be 90%.
Regarding `Cc1cscc1-c1nc2c(cc1C)[S+]([O-])CN2` (centres unmarked) [Example I-023], the pest or weed control at 1280 g/ha in assay [1] (Echinochloa crus-galli, pre-emergence, 504 h, application rate 1280 g/ha, read-out: pre-emergence activity against ECHCG in %) was found to be 100%; in the assay on Kochia scoparia (KCHSC) [2] (Bassia scoparia, pre-emergence, 504 h, application rate 1280 g/ha, read-out: pre-emergence activity against KCHSC in %), 90%; with Lolium rigidum (LOLRI) [3] (Lolium rigidum, pre-emergence, 504 h, application rate 1280 g/ha, read-out: pre-emergence activity against LOLRI in %), 100%; in [4] it was 90%; in the assay with Poa annua (POAAN) [5] (Poa annua, pre-emergence, 504 h, application rate 1280 g/ha, read-out: pre-emergence activity against POAAN in %) it was 100%; in the assay with Setaria viridis (SETVI) [6] (Setaria viridis, 504 h, application rate 1280 g/ha, read-out: pre-emergence activity against SETVI in %), 100%. The pest or weed control at 1280 g/ha in [9] (Amaranthus retroflexus, 504 h, application rate 1280 g/ha, read-out: pre-emergence activity against AMARE in %) was determined as 90%; in assay [10], 100%; in assay [12] (Echinochloa crus-galli, 504 h, application rate 1280 g/ha, read-out: post-emergence activity against ECHCG in %), 90%; in the assay with Kochia scoparia (KCHSC) [20], 90%; in the assay on Lolium rigidum (LOLRI) [13], 90%; in the assay on Stellaria media (STEME) [16] it was 90%. Besides, the pest or weed control at 1280 g/ha with Veronica persica (VERPE) [17] (application rate 1280 g/ha) came to 90%. Moreover, the pest or weed control at 320 g/ha in the assay on Stellaria media (STEME) [7], in the assay on Veronica persica (VERPE) [8] and in the assay with Poa annua (POAAN) [14] (application rate 320 g/ha) was 90% throughout.
In the case of `Cc1cc2c(nc1-c1cccc(F)c1F)N(C(=O)C13CCCC1C(Cl)=NO3)CS2` (centres unmarked) [Example I-156], the “pre-emergence activity against ALOMY in %” value in [21] is on record as 90%. For the same compound, the “pre-emergence activity against ECHCG in %” value in assay [1] (application rate 320 g/ha) was found to be 90%. Besides, the “pre-emergence activity against KCHSC in %” value with Kochia scoparia (KCHSC) [2] (application rate 320 g/ha) worked out at 90%. For the same compound, the “pre-emergence activity against LOLRI in %” value in the assay with Lolium rigidum (LOLRI) [3] (application rate 320 g/ha) came to 90%. Further, in assay [4], the “pre-emergence activity against MATIN in %” value is 90%. For the same compound, the “pre-emergence activity against POAAN in %” value in the assay with Poa annua (POAAN) [5] (application rate 320 g/ha) was determined as 100%. In addition, the “pre-emergence activity against SETVI in %” value in the assay with Setaria viridis (SETVI) [6] (application rate 320 g/ha) was 100%. Also, in the assay with Stellaria media (STEME) [7], the “pre-emergence activity against STEME in %” value is listed as 90%. Moreover, in the assay on Veronica persica (VERPE) [8] (application rate 1280 g/ha), the “pre-emergence activity against VERPE in %” value was found to be 90%. Moreover, the “pre-emergence activity against AMARE in %” value in [9] (application rate 320 g/ha) turned out to be 90%. The “pre-emergence activity against DIGSA in %” value in [10] (application rate 320 g/ha) was 90%. In addition, the “post-emergence activity against ECHCG in %” value in [12] (application rate 1280 g/ha) was determined as 90%. Further, the “post-emergence activity against LOLRI in %” value with Lolium rigidum (LOLRI) [13] was determined as 90%. Also, the “post-emergence activity against STEME in %” value in the assay with Stellaria media (STEME) [16] (application rate 320 g/ha) is 90%. Besides, the “post-emergence activity against AMARE in %” value in assay [18] (application rate 1280 g/ha) is recorded as 90%.
